The subject of assay [1] is human Jurkat T cells deficient in FADD. Description: Cell protection effect under apoptosis-inducing condition (TNF-α). Format: cell-based. To be noted: 40 ng of TNF-α, 50 hours, CellTiter-Glo, read-out: I2.I Cell EC50. On the procedure: The cell protection effect of the compounds according to the present invention under the condition of inducing apoptosis by TNF-α was confirmed by […]. An apoptosis inducing factor such as TNF-α was treated to induce apoptosis of human Jurkat T cells deficient in FADD, to which the example compound was treated, and the cell protection effect was confirmed through the following analysis. Jurkat T cells deficient in FADD were cultured using RPMI medium (Hyclone) containing 10% FBS. When performing the test, the cells were seeded in a 96-well plate containing a medium suitable for the cell line at the density of 10,000 cells/well, and cultured in a 37° C. 5% CO2 incubator for 24 hours. Then, each well was treated with 40 ng of TNF-α, and the compounds prepared in the above examples were each treated with a 3-fold concentration gradient with 1 μM as the highest concentration. As the solvent control, dimethyl sulfoxide (DMSO) was treated at the concentration of 0.05% (v/v), which was the same concentration as that used for the compound treatment. Then, the cells were cultured for 50 hours. To confirm the degree of viability of the cells, a mixture provided in CellTiter-Gloe Luminescent Cell Viability Assay Kit (Promega) was added to the culture medium of the cells, followed by further culture at 37° C. for 30 minutes. Then, luminescence fluorescence was measured. The degree of inhibition of apoptosis induction according to the treatment concentration of each compound was calculated based on the fluorescence of the solvent control cells not treated with the compound. At this time, the concentration of each compound inhibiting 50% was determined as EC50 (μM). EC50 of each compound was calculated using Prism (version 7.01, GraphPad) software.

The target in a further assay is T1, human GST-RIPK1 (Homo sapiens, UniProt Q13546).
T1 construct: GST; purchased signalchem
T1 sequence (Q13546 1-375 limits assumed): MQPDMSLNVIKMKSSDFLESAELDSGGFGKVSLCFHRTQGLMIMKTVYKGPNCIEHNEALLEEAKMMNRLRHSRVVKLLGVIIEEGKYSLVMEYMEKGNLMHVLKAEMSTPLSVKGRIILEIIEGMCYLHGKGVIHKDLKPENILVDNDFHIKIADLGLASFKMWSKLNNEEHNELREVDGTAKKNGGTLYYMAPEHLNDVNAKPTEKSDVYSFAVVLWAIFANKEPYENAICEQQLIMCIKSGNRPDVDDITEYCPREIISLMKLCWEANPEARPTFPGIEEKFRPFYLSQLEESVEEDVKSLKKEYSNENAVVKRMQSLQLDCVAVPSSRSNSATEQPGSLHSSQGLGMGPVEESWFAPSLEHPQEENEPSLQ
Description: RIPK1 inhibitory activity (ADP-Glo kinase assay). Format: biochemical. To be noted: human GST-RIPK1 10 ng, ATP 50 uM, 25° C. for 4 hours, read-out: Enzyme IC50. On the procedure: The following experiment was performed to evaluate the inhibitory activity of the example compounds according to the present invention against RIPK1 (receptor-interacting serine/threonine protein kinase 1).
The example compound was reacted with the purified human GST-RIPK1 (1375, signalchem) enzyme to evaluate the enzyme inhibitory activity in the following manner. The composition of the reaction buffer used herein was as follows: 40 mM Tris-Hcl pH 7.4, 20 mM MgCl2, 0.5 mg/ml, BSA and 0.5 uM DTT. All the test materials were reacted in the reaction buffer. After reacting human GST-RIPK1 (1375, 10 ng), purified ATP (50 uM) and a specific substrate solution at 25° C. for 4 hours, the enzyme activity was confirmed using an in vitro ADP-Glo™ kinase assay (promega). Luminoscence was measured by reacting the enzyme activity reaction solution, ADP-Glo reaction solution, and enzyme activity detection solution at the ratio of 2:2:1. The degree of enzyme activity inhibition according to the treatment concentration of each compound was calculated based on the fluorescence of the enzyme activity of the solvent control not treated with the compound. At this time, the concentration of each compound inhibiting 50% of the enzyme activity was determined as IC50 (nM). IC50 of each compound was determined with three data sets and calculated using Prism (version 7.01, GraphPad) software.
Background: ADP-Glo first removes unused ATP, then detects ADP through luciferase.

Structures can show the parent of a compound that is named as a salt. A value given as a limit tells only on which side of the number the result lay.

For `O=C(Nc1cccc(C#Cc2cnc3cccnn23)c1)N1N=CC[C@H]1c1ccccc1` [Example 20, (S)—N-(3-(imidazo[1,2-b]pyridazin-3-ylethynyl)phenyl)-5-phenyl-4,5-dihydro-1H-pyrazole-1-carboxamide hydrochloride], the half-maximal effective concentration (EC50) in assay [1] amounted to 0.021 nM. For the same compound, on human GST-RIPK1, the IC50 was found to be 0.52 nM.

As for `O=C(Nc1cccc(C#Cc2cnc3cccnn23)c1)N1N=CC[C@@H]1c1ccccc1` [Example 21, (R)—N-(3-(imidazo[1,2-b]pyridazin-3-ylethynyl)phenyl)-5-phenyl-4,5-dihydro-1H-pyrazole-1-carboxamide hydrochloride], the EC50 in assay [1] is 588 nM. The half-maximal inhibitory concentration (IC50) on human GST-RIPK1 was above 1000 nM.

With `O=C(Nc1ccc(C#Cc2cnc3cccnn23)cc1)N1N=CCC1c1ccccc1` (stereo not shown) [Example 22, N-(4-(imidazo[1,2-b]pyridazin-3-ylethynyl)phenyl)-5-phenyl-4,5-dihydro-1H-pyrazole-1-carboxamide 2,2,2-trifluoroacetate], in assay [1], the EC50 is above 1000 nM. Moreover, the IC50 on human GST-RIPK1 is above 1000 nM.

Regarding `O=C(Nc1cccc(C#Cc2cnc3cccnn23)c1)N1N=CCC1c1cc(F)cc(F)c1` (stereo not shown) [Example 23, 5-(3,5-difluorophenyl)-N-(3-(imidazo[1,2-b]pyridazin-3-ylethynyl)phenyl)-4,5-dihydro-1H-pyrazole-1-carboxamide 2,2,2-trifluoroacetate], the EC50 in assay [1] amounted to 1.2 nM. Further, the IC50 on human GST-RIPK1 is 32.2 nM.

Turning to `O=C(Nc1cccc(C#Cc2cnc3cccnn23)c1)N1N=CC[C@H]1c1cc(F)cc(F)c1` [Example 24, (S)-5-(3,5-difluorophenyl)-N-(3-(imidazo[1,2-b]pyridazin-3-ylethynyl)phenyl)-4,5-dihydro-1H-pyrazole-1-carboxamide 2,2,2-trifluoroacetate], the concentration for a half-maximal effect (EC50) in assay [1] came out at 0.44 nM. At human GST-RIPK1, the IC50 is 2.76 nM.

Take `O=C(Nc1cccc(C#Cc2cnc3cccnn23)c1)N1N=CC[C@@H]1c1cc(F)cc(F)c1` [Example 25, (R)-5-(3,5-difluorophenyl)-N-(3-(imidazo[1,2-b]pyridazin-3-ylethynyl)phenyl)-4,5-dihydro-1H-pyrazole-1-carboxamide 2,2,2-trifluoroacetate]: the EC50 in assay [1] is 364 nM. Besides, the IC50 at human GST-RIPK1 stood at 878 nM.

For `O=C(Nc1cccc(C#Cc2cnc3cccnn23)c1)N1N=CCC1c1ccc(C(F)(F)F)cc1` (stereo not shown) [Example 26, N-(3-(imidazo[1,2-b]pyridazin-3-ylethynyl)phenyl)-5-(4-(trifluoromethyl)phenyl)-4,5-dihydro-1H-pyrazole-1-carboxamide 2,2,2-trifluoroacetate], the EC50 in assay [1] is 201 nM. Moreover, on human GST-RIPK1, the IC50 came to 6.9 nM.

As to `COc1ccc(C2CC=NN2C(=O)Nc2cccc(C#Cc3cnc4cccnn34)c2)cc1` (stereo not shown) [Example 27, N-(3-(imidazo[1,2-b]pyridazin-3-ylethynyl)phenyl)-5-(4-methoxyphenyl)-4,5-dihydro-1H-pyrazole-1-carboxamide 2,2,2-trifluoroacetate], the 50% effective concentration (EC50) in assay [1] was found to be 55.4 nM. For the same compound, the IC50 at human GST-RIPK1 stood at 2.35 nM.

On to `O=C(Nc1cccc(C#Cc2cnc3cccnn23)c1)N1N=CCC1c1cccc(F)c1` (stereo not shown) [Example 28, 5-(3-fluorophenyl)-N-(3-(imidazo[1,2-b]pyridazin-3-ylethynyl)phenyl)-4,5-dihydro-1H-pyrazole-1-carboxamide 2,2,2-trifluoroacetate], for which the EC50 in assay [1] stood at 0.8 nM. For the same compound, the IC50 at human GST-RIPK1 was 10.1 nM.

For `O=C(Nc1cccc(C#Cc2cnc3cccnn23)c1)N1N=CC[C@H]1c1cccc(F)c1` [Example 29, (S)-5-(3-fluorophenyl)-N-(3-(imidazo[1,2-b]pyridazin-3-ylethynyl)phenyl)-4,5-dihydro-1H-pyrazole-1-carboxamide 2,2,2-trifluoroacetate], the EC50 in assay [1] was 0.3 nM. For the same compound, the IC50 at human GST-RIPK1 is 5.83 nM.

Turning to `O=C(Nc1cccc(C#Cc2cnc3cccnn23)c1)N1N=CC[C@@H]1c1cccc(F)c1` [Example 30, (R)-5-(3-fluorophenyl)-N-(3-(imidazo[1,2-b]pyridazin-3-ylethynyl)phenyl)-4,5-dihydro-1H-pyrazole-1-carboxamide 2,2,2-trifluoroacetate], in assay [1], the EC50 was 321 nM. For the same compound, the IC50 on human GST-RIPK1 was 399 nM.

In the case of `O=C(Nc1cccc(C#Cc2cnc3cccnn23)c1)N1N=CCC1c1ccc(F)cc1` (stereo not shown) [Example 31, 5-(4-fluorophenyl)-N-(3-(imidazo[1,2-b]pyridazin-3-ylethynyl)phenyl)-4,5-dihydro-1H-pyrazole-1-carboxamide 2,2,2-trifluoroacetate], the concentration for a half-maximal effect (EC50) in assay [1] worked out at 1.43 nM. On human GST-RIPK1, the concentration for half-maximal inhibition (IC50) is 10.2 nM.

Take `O=C(Nc1cccc(C#Cc2cnc3cccnn23)c1)N1N=CC[C@H]1c1ccc(F)cc1` [Example 32, (S)-5-(4-fluorophenyl)-N-(3-(imidazo[1,2-b]pyridazin-3-ylethynyl)phenyl)-4,5-dihydro-1H-pyrazole-1-carboxamide 2,2,2-trifluoroacetate]: the half-maximal effective concentration (EC50) in assay [1] worked out at 0.63 nM. In addition, at human GST-RIPK1, the concentration for half-maximal inhibition (IC50) turned out to be 4.83 nM.

For `O=C(Nc1cccc(C#Cc2cnc3cccnn23)c1)N1N=CC[C@@H]1c1ccc(F)cc1` [Example 33, (R)-5-(4-fluorophenyl)-N-(3-(imidazo[1,2-b]pyridazin-3-ylethynyl)phenyl)-4,5-dihydro-1H-pyrazole-1-carboxamide 2,2,2-trifluoroacetate], the concentration giving a half-maximal response (EC50) in assay [1] was 32 nM. Also, the half-inhibitory concentration (IC50) at human GST-RIPK1 is above 1000 nM.

As for `O=C(Nc1cccc(C#Cc2cnc3cccnn23)c1)N1N=CCC1c1cccc(Cl)c1` (stereo not shown) [Example 34, 5-(3-chlorophenyl)-N-(3-(imidazo[1,2-b]pyridazin-3-ylethynyl)phenyl)-4,5-dihydro-1H-pyrazole-1-carboxamide 2,2,2-trifluoroacetate], the EC50 in assay [1] worked out at 43 nM. Moreover, on human GST-RIPK1, the IC50 stood at 18.9 nM.

As for `O=C(Nc1cccc(C#Cc2cnc3cccnn23)c1)N1N=CCC1c1ccc(Cl)cc1` (stereo not shown) [Example 35, 5-(4-chlorophenyl)-N-(3-(imidazo[1,2-b]pyridazin-3-ylethynyl)phenyl)-4,5-dihydro-1H-pyrazole-1-carboxamide 2,2,2-trifluoroacetate], the EC50 in assay [1] was found to be 3.87 nM. In addition, the concentration for half-maximal inhibition (IC50) on human GST-RIPK1 is 61.6 nM.

Consider `O=C(Nc1cccc(C#Cc2cnc3cccnn23)c1)N1N=CCC1c1cccnc1` (stereo not shown) [Example 36, N-(3-(imidazo[1,2-b]pyridazin-3-ylethynyl)phenyl)-5-(pyridin-3-yl)-4,5-dihydro-1H-pyrazole-1-carboxamide 2,2,2-trifluoroacetate], for which the 50% effective concentration (EC50) in assay [1] came to 12 nM. Moreover, the half-maximal inhibitory concentration (IC50) on human GST-RIPK1 came out at 2.98 nM.

As for `O=C(Nc1cccc(C#Cc2cnc3cccnn23)c1)N1N=CCC1c1ccccn1` (stereo not shown) [Example 37, N-(3-(imidazo[1,2-b]pyridazin-3-ylethynyl)phenyl)-5-(pyridin-2-yl)-4,5-dihydro-1H-pyrazole-1-carboxamide 2,2,2-trifluoroacetate], the concentration giving a half-maximal response (EC50) in assay [1] is 1.84 nM. The half-inhibitory concentration (IC50) on human GST-RIPK1 stood at 1.22 nM.

For `O=C(Nc1cccc(C#Cc2cnc3cccnn23)c1)N1N=CCC1c1ccncc1` (stereo not shown) [Example 38, N-(3-(imidazo[1,2-b]pyridazin-3-ylethynyl)phenyl)-5-(pyridin-4-yl)-4,5-dihydro-1H-pyrazole-1-carboxamide hydrochloride], the half-maximal effective concentration (EC50) in assay [1] was 106 nM. In addition, the IC50 at human GST-RIPK1 came out at 1.1 nM.

On to `O=C(Nc1cccc(C#Cc2cnc3cccnn23)c1)N1N=CCC1c1ccc2c(c1)OCO2` (stereo not shown) [Example 39, 5-(benzo[d][1,3]dioxol-5-yl)-N-(3-(imidazo[1,2-b]pyridazin-3-ylethynyl)phenyl)-4,5-dihydro-1H-pyrazole-1-carboxamide 2,2,2-trifluoroacetate], for which, in assay [1], the 50% effective concentration (EC50) was found to be 2.8 nM. The concentration for half-maximal inhibition (IC50) at human GST-RIPK1 turned out to be 4.9 nM.

Usually EC50 stands for the concentration giving half of the maximal effect. What is called IC50 is the concentration at which inhibition is half-maximal.

For the origin of these results see patent US20210284647A1, “N-(3-(IMIDAZO[1,2-B]PYRIDAZIN-3-YLETHYNYL)-4-METHYLPHENYL)-5-PHENYL-4,5-DIHYDRO-1H-PYRAZOLE-1-CARBOXAMIDE DERIVATIVE, AND PHARMACEUTICAL COMPOSITION CONTAINING SAME AS ACTIVE INGREDIENT FOR TREATING KINASE-RELATED DISEASES” (VORONOIBIO INC., priority 2018, published 2021).
